Assay results taken from patent US9365534B2, “Arylated camphenes, processes for their preparation and uses thereof” (Yissum Research Development Company of the Hebrew …, priority 2009, dated 2016).
Read-outs that look alike come from different tables or passages of the source.

Tests used:
human CB1 receptor [1] = target: T1, human CB1 receptor (Homo sapiens (Human), UniProt P21554); test: cell-based; conditions: whole cells expressing CB1, 50 μM forskolin; read-out: cAMP Assay CB1 Receptor IC50
Text: (§1) The cDNA clones for human HA-tagged CB1 and CB2 receptors were obtained from the Missouri S&T cDNA Resource Center (www.cdna.org) in cloning vector pcDNA3.1+. The vector containing the human CB2 receptor was transfected directly into CHO-KI cells obtained from ATCC. The HA-tagged human CB1 receptor sequence was subcloned into the pef4-V5-HisA vector with Kpn1 and Pme1 restriction enzymes and subsequently transfected into CHO-K1 cells. Cells were clonally isolated by limited dilution and screened by immunocytochemistry for expression of the HA tag.
(§2) Cells were maintained in DMEM/F12 media supplemented with 10% fetal bovine serum (FBS), 100 units/ml penicillin and 100 μg/ml streptomycin and 2 mM L-glutamine. Transfected cell lines were maintained with additional 150 ug/ml zeocin for pEF HA-CB1 transfected cells and 500 ug/ml G-418 for pcDNA HA-CB2 transfected cells (all reagents obtained from Invitrogen).
(§3) Cells were seeded at a density of 10,000 cells per well in poly-L-lysine treated 96-well culture plates (BD Biosciences). The following day wells were incubated with 40 μl DMEM/F12 containing 0.5% (w/v) BSA and 0.5 mM 3-isobutyl-1-methylxanthine (Sigma-Aldrich) for 30 minutes prior to 15 min stimulation with 50 μM forskolin (Tocris Cookson) and varying concentrations of indicated compounds at 37° C., 5% CO2. Assays were stopped by removal of media and addition of 100% ice cold ethanol. Plates were then frozen for a minimum of two hours before complete evaporation of ethanol. The well contents were then reconstituted in 50 μl cAMP assay buffer (20 mM HEPES pH 7.5 and 5 mM EDTA). Half of the reconstituted sample was transferred to round bottom 96-well plates (Greiner Bio-One GmbH) with 50 μl 0.01% w/v PKA (cAMP dependent protein kinase (Sigma-Aldrich) in 1 mM Na citrate pH 6.5 with 2 mM dithiothreitol) and 25 μl [^3H]-cAMP (at 22 nM in cAMP assay buffer) (GE Healthcare, Life Sciences). This was allowed to equilibrate for 3-18 hours. Following this a charcoal slurry (5% (w/v) activated charcoal and 0.2% (w/v) BSA in cAMP assay buffer) was added to the samples and the plates centrifuged at 3000×g, 4° C. for 5 min. Radioactive counts within the supernatant were then determined as described for competition binding assays.
(§4) pIC50 values were determined from cAMP assays by fitting a sigmoidal concentration response curve using Prism 4.02.

human CB2 receptor [2] = target: T2, human CB2 receptor (Homo sapiens (Human), UniProt P34972); test: cell-based; conditions: for Emax: CHO, read-out: cAMP Assay CB2 Receptor Emax
Text: as §1, §2, §3, §4

human CB1 receptor [3] = target: T1, human CB1 receptor; test: Membrane competition binding assay with [3H]-CP 55,940, CHO-CB1 membranes; conditions: read-out: Competition Binding Assay CB1 Receptor Ki
Text: as §1, §2
(§5) Cells were grown to confluence and harvested in ice cold phosphate buffered saline with 5 mM EDTA. Cells were spun at 200×g for 10 min and frozen at −80° C. until required. Cell pellets were thawed with cold 0.32 M sucrose and homogenised with a glass homogeniser. The homogenate was spun at 1000×g for 10 min at 4° C. and the supernatant spun in a Sorvall ultracentrifuge for 30 min at 100,000×g. The pellet was then washed in ice cold water and re-spun twice more. The final pellet was resuspended in 50 mM Tris pH 7.5, 0.5 mM EDTA. Protein concentration was determined using the Dc protein assay kit (BioRad, Hercules, Calif., USA).
(§6) Membranes (5-10 μg) were incubated with radioligand and a range of concentrations of test compounds in binding buffer (50 mM Tris pH 7.4, 5 mM MgCl2, 1 mM EDTA) with 0.5% (w/v) bovine serum albumin (BSA) (ICP Bio, New Zealand), at 30° C. for 60 min. Stock solutions of putative cannabinoid ligands were prepared in dimethyl sulfoxide to a concentration of 10 mM. Six different final concentrations of compounds were used ranging from 50 μM to 0.1 nM. […] Assays were terminated by addition of 2 ml ice cold binding buffer and filtration through GF/C filters (Whatman) pre-soaked in cold binding buffer, followed by two washes in the same buffer.
(§7) Radioactivity was determined by incubation of filters with Irgasafe scintillation fluid (PerkinElmer) and scintillation counting in a Wallac Trilux using Microbeta Trilux software. Data was analysed using the Prism 4.02 programme (GraphPad Software, San Deigo, Calif., USA).
(§8) All data was analyzed using Prism 4.02. For binding data the Ki was determined from IC50 values derived from competition binding data fitted with one site competition non-linear regression analysis by Prism 4.02 using the Kd values reported above.

human CB2 receptor [4] = target: T2, human CB2 receptor; test: Membrane competition binding assay with [3H]-CP 55,940, CHO-CB2 membranes
Text: as §1, §2, §5, §6, §7, §8

[5] = whole cells expressing CB2, 50 μM forskolin, read-out: cAMP Assay CB2 Receptor IC50
[6] = CHO-CB1 cellular membranes, 2.5 nM [3H]-CP 55,940
[7] = CHO-CB2 cellular membranes, 2.5 nM [3H]-CP 55,940
[8] = read-out: cAMP Assay CB2 Receptor IC50

T1 sequence (P21554 whole entry): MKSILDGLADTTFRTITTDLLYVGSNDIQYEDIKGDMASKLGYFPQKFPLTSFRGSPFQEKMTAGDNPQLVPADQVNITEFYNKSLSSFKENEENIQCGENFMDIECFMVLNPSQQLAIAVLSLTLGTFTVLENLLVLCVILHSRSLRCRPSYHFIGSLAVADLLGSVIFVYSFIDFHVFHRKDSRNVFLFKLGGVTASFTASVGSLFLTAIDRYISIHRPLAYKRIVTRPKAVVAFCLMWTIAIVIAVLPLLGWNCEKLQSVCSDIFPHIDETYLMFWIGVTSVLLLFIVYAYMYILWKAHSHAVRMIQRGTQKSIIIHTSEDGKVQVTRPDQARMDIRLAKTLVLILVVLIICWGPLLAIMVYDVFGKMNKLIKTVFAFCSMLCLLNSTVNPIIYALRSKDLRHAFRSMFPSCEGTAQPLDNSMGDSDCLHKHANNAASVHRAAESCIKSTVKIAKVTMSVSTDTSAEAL

Row | Compound | IC50 (human CB1 receptor [1]) | IC50 (human CB2 receptor [2]; [5]) | Ki (human CB1 receptor [3]; [6]) | Ki (human CB2 receptor [4]; [7]) | Emax (human CB2 receptor [2]) | IC50 (human CB2 receptor [2]; [8]) | Ki (human CB2 receptor [4]) | IC50 (human CB2 receptor [2]) | Ki (human CB1 receptor [3])
1 | CCCCCc1cc(OC)c(C2C(O)[C@]3(C)CC[C@H]2C3(C)C)c(OC)c1 (stereo partly drawn) [HU-938, (1R,4R)-3-(2,6-dimethoxy-4-pentylphenyl)-1,7,7-trimethylbicyclo[2.2.1]heptan-2-ol] | > 50 µM | > 50 µM | > 50 µM | 7.91 µM | – | – | – | – | –
2 | CCCCCc1cc(OC)c(C2=C[C@@H]3CC[C@@]2(C(=O)OC)C3(C)C)c(OC)c1 [HU-971, (1R,4S)-methyl-2-(2,6-dimethoxy-4-pentylphenyl)-7,7-dimethylbicyclo[2.2.1]hept-2-ene-1-carboxylate] | > 50 µM | – | > 50 µM | – | 31 ± 4% | 1.53 µM | 0.704 µM | – | –
3 | CCCCCc1cc(OC)c(C2=C[C@@H]3CC[C@@]2(CO)C3(C)C)c(OC)c1 [HU-969, (1R,4S)-(2-(2,6-dimethoxy-4-pentylphenyl)-7,7-dimethylbicyclo[2.2.1]hept-2-en-1-yl)methanol] | > 50 µM | – | > 50 µM | – | – | – | 6.46 µM | > 50 µM | –
4 | CCCCCCC(C)(C)c1cc(O)c2c(c1)OC(C)(C)[C@@H]1CC=C(CO)C[C@@H]21 [HU-210, 1,1-Dimethylheptyl-11-hydroxy-tetrahydrocannabinol, reference compound] | – | – | – | – | – | – | – | – | 0.00294 µM
5 | CCCCCc1cc(OC)c(C2=C[C@@H]3CC[C@@]2(C(=O)O)C3(C)C)c(OC)c1 [HU-973, (1R,4S)-2-(2,6-dimethoxy-4-pentylphenyl)-7,7-dimethylbicyclo[2.2.1]hept-2-ene-1-carboxylic acid] | > 50 µM | – | > 50 µM | – | 40 ± 6% | 2.09 µM | 1.15 µM | – | –
6 | CCCCCCC(C)(C)c1cc(OC)c(C2=C[C@@]3(C)CC[C@@H]2C3(C)C)c(OC)c1 [HU-918, (1R,4R)-3-(2,6-dimethoxy-4-(2-methyloctan-2-yl)phenyl)-1,7,7-trimethylbicyclo[2.2.1]hept-2-ene] | > 50 µM | > 50 µM | > 50 µM | > 50 µM | – | – | – | – | –
7 | CCCCCCC(C)(C)c1cc(OC)c(C2=C[C@H]3CC[C@]2(C)C3(C)C)c(OC)c1 [HU-907, (1R,4R)-2-(2,6-dimethoxy-4-(2-methyloctan-2-yl)phenyl)-1,7,7-trimethylbicyclo[2.2.1]hept-2-ene] | > 50 µM | > 50 µM | > 50 µM | 2.51 µM | – | – | – | – | –
8 | CCCCCc1cc(OC)c(C2C(=O)[C@]3(C)CC[C@H]2C3(C)C)c(OC)c1 (stereo partly drawn) [HU-936, (1R,4R)-3-(2,6-dimethoxy-4-pentylphenyl)-1,7,7-trimethylbicyclo[2.2.1]heptan-2-one] | > 50 µM | > 50 µM | > 50 µM | 1.72 µM | – | – | – | – | –
9 | CCCCCCC(C)(C)c1cc(OC)c(C2=C[C@@H]3CC[C@@]2(C)C3(C)C)c(OC)c1 [HU-908, (1S,4S)-2-(2,6-dimethoxy-4-(2-methyloctan-2-yl)phenyl)-1,7,7-trimethylbicyclo[2.2.1]hept-2-ene] | > 50 µM | > 50 µM | > 50 µM | > 50 µM | – | – | – | – | –
10 | CCCCCc1cc(OC)c(C2=C[C@H]3CC[C@]2(CO)C3(C)C)c(OC)c1 [HU-970, (1S,4R)-(2-(2,6-dimethoxy-4-pentylphenyl)-7,7-dimethylbicyclo[2.2.1]hept-2-en-1-yl)methanol] | > 50 µM | – | > 50 µM | – | 38 ± 2% | 1.15 µM | 1.27 µM | – | –
11 | CCCCCc1cc(OC)c(C2=C[C@H]3CC[C@]2(C(=O)O)C3(C)C)c(OC)c1 [HU-974, (1S,4R)-2-(2,6-dimethoxy-4-pentylphenyl)-7,7-dimethylbicyclo[2.2.1]hept-2-ene-1-carboxylic acid] | > 50 µM | – | > 50 µM | – | – | – | > 10 µM | > 50 µM | –
12 | CCCCCCC(C)(C)c1cc(OC)c(C2=C[C@]3(C)CC[C@H]2C3(C)C)c(OC)c1 [HU-917, (1S,4S)-3-(2,6-dimethoxy-4-(2-methyloctan-2-yl)phenyl)-1,7,7-trimethylbicyclo[2.2.1]hept-2-ene] | > 50 µM | > 50 µM | > 50 µM | > 50 µM | – | – | – | – | –
